Results: ChEMBL document CHEMBL3991601, “The target landscape of clinical kinase drugs” (Science, 2017)
Activity calls are given as the source filed them. For most assays here, no stated cut-off is given here; in the data, actives have a measured Kd and inactives only a lower limit.

Experiments:
[1] = target: cAMP-dependent protein kinase catalytic subunit alpha (Homo sapiens, UniProt P17612)
[2] = target: Serine/threonine-protein kinase SIK3 (Homo sapiens, UniProt Q9Y2K2)
[3] = target: T1, Cytochrome c1, heme protein, mitochondrial (Homo sapiens, UniProt P08574)
T1 sequence (P08574 whole entry): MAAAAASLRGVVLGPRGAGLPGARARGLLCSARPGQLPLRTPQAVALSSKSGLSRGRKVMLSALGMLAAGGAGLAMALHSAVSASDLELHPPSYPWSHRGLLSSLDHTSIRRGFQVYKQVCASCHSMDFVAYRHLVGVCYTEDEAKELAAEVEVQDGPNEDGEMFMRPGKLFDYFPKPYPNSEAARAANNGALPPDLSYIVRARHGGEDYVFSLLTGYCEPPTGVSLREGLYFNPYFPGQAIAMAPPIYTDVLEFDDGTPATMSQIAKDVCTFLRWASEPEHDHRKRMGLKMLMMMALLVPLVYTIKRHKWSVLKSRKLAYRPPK

[4] = target: Serine/threonine-protein kinase MRCK beta (Homo sapiens, UniProt Q9Y5S2)
Aurora kinase A = target: T2, Aurora kinase A (Homo sapiens, UniProt O14965)
T2 sequence (O14965 whole entry): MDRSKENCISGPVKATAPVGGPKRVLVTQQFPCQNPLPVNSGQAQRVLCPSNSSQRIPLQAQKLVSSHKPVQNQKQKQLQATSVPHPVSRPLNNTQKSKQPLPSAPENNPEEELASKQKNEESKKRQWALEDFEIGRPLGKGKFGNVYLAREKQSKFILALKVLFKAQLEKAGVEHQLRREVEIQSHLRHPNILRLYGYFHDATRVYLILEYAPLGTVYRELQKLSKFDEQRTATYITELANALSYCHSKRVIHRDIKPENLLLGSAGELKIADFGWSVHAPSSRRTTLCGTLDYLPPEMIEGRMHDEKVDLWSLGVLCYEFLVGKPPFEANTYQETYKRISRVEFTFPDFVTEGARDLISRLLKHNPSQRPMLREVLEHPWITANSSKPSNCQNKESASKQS

[5] = target: T3, Dual specificity mitogen-activated protein kinase kinase 3 (Homo sapiens, UniProt P46734)
T3 sequence (P46734 whole entry): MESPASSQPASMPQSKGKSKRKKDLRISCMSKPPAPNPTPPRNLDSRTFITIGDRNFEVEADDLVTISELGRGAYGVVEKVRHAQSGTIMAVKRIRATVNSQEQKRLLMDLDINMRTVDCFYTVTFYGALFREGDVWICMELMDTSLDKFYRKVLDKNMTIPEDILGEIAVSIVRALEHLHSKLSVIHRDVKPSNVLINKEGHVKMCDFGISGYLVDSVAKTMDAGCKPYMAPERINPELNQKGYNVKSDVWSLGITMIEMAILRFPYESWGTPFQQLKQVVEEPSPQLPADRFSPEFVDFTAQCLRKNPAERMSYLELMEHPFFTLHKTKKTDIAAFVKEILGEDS

[6] = target: Cyclin-dependent kinase 3 (Homo sapiens, UniProt Q00526)
[7] = target: Cyclin-dependent kinase 1 (Homo sapiens, UniProt P06493)
[8] = target: Protein-tyrosine kinase 2-beta (Homo sapiens, UniProt Q14289)
[9] = target: T4, Serine/threonine-protein kinase 4 (Homo sapiens, UniProt Q13043)
T4 sequence (Q13043 whole entry): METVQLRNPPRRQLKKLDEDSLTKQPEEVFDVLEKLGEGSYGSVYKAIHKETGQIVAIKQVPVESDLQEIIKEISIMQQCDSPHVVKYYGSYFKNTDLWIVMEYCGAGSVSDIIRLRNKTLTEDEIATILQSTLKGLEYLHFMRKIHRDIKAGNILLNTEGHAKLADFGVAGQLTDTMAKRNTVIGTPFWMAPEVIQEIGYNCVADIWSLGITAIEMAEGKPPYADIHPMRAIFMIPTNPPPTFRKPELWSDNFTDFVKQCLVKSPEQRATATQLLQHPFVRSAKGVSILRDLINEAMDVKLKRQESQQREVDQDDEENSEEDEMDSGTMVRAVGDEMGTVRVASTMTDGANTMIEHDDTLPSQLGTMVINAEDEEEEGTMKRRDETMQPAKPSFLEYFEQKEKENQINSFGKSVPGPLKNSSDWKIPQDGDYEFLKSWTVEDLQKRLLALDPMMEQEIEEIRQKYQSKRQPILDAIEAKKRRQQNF

[10] = target: Receptor-interacting serine/threonine-protein kinase 3 (Homo sapiens, UniProt Q9Y572)
[11] = target: Ribosomal protein S6 kinase alpha-4 (Homo sapiens, UniProt O75676)
Insulin receptor = Insulin receptor (Homo sapiens, UniProt P06213)
DNA topoisomerase 2-beta = DNA topoisomerase 2-beta (Homo sapiens, UniProt Q02880)
[12] = target: T5, Serine/threonine-protein kinase Nek3 (Homo sapiens, UniProt P51956)
T5 sequence (P51956 whole entry): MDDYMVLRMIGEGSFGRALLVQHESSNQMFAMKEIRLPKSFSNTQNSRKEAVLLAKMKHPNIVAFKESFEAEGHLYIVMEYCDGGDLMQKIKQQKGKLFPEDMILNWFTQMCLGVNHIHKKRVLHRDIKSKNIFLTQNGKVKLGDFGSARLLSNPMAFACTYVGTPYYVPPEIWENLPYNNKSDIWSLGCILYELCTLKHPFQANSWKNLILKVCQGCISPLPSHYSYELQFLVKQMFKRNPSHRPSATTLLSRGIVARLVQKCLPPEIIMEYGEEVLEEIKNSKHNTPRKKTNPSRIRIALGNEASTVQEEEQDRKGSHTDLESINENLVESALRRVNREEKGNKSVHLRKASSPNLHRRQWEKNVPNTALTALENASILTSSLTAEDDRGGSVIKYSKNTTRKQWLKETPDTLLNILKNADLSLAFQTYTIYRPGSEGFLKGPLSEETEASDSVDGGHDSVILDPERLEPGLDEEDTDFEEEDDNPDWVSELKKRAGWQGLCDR

[13] = target: Tyrosine-protein kinase HCK (Homo sapiens, UniProt P08631)
Chain of Tyrosine-protein kinase HCK (P08631 whole entry): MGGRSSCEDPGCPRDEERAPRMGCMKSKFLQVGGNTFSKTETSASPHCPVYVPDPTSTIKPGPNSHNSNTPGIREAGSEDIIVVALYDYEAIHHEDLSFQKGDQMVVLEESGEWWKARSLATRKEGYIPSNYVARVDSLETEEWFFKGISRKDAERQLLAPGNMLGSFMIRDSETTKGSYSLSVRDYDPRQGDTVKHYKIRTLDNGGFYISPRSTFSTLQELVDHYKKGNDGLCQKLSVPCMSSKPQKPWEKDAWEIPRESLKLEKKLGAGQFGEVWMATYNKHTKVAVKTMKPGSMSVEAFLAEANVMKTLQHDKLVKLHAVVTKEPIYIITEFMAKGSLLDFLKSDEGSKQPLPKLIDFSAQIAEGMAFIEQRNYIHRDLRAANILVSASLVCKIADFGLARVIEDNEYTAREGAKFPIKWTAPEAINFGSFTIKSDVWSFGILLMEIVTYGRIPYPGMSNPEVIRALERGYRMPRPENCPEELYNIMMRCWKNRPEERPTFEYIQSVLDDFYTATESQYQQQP

Chain of Ribosomal protein S6 kinase alpha-4 (O75676 whole entry): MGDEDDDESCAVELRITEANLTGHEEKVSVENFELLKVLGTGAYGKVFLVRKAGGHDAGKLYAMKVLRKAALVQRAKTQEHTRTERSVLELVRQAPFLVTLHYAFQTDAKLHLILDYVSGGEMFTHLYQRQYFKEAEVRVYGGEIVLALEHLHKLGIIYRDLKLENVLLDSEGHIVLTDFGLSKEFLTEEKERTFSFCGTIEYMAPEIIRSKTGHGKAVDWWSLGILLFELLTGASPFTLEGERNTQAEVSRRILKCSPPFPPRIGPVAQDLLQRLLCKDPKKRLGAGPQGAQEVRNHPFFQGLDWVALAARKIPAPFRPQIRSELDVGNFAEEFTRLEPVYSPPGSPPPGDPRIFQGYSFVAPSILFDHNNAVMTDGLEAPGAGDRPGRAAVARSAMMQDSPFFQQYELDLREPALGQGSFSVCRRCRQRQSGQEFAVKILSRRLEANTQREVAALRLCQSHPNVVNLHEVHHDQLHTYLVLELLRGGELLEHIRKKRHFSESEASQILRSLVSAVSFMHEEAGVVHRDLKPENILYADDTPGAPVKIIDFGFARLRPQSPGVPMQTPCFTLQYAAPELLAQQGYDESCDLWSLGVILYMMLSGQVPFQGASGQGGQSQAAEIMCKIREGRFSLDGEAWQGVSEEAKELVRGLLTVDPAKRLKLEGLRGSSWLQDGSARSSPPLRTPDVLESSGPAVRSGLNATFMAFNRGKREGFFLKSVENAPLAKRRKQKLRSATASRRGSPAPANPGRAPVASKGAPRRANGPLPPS
Chain of DNA topoisomerase 2-beta (Q02880 whole entry): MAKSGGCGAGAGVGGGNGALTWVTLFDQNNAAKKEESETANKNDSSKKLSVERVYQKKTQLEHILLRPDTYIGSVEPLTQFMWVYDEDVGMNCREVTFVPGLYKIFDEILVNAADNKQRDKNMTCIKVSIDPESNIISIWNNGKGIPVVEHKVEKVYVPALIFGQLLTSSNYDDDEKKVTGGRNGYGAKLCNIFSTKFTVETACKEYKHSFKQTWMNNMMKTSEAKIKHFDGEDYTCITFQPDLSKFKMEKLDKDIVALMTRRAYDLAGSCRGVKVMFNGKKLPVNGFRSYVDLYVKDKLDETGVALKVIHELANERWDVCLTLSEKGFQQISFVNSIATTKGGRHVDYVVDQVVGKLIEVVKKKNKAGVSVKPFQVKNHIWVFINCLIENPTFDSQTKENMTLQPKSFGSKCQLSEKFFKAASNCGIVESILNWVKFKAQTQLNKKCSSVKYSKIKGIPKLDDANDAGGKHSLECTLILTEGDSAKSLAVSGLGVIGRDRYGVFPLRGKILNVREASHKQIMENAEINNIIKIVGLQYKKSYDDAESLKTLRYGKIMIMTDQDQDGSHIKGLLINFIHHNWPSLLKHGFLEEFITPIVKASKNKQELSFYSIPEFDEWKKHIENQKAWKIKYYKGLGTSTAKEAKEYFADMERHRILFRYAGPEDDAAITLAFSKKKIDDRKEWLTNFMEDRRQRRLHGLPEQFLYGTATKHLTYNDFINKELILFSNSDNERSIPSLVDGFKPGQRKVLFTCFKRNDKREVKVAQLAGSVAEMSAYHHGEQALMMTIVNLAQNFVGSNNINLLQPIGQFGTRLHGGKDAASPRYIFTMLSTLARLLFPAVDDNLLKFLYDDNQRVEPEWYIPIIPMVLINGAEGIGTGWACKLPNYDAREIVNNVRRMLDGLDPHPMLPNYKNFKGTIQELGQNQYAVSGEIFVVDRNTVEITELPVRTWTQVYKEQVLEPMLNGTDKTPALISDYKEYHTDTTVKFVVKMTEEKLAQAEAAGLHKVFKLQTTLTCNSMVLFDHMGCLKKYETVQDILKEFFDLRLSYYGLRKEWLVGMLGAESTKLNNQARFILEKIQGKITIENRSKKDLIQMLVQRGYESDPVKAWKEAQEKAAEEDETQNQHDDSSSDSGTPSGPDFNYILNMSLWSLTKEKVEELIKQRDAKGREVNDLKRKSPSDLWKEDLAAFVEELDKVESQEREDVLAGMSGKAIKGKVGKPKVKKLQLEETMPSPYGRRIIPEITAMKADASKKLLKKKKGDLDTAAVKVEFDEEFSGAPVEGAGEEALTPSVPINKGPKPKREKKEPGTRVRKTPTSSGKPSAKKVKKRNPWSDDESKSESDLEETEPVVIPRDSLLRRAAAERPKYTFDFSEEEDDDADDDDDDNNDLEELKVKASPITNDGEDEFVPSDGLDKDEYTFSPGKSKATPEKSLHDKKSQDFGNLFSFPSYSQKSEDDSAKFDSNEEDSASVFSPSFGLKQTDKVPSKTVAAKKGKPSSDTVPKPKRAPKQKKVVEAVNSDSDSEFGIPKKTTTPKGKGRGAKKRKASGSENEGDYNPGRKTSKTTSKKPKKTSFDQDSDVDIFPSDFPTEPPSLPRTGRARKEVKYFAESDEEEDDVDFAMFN
Chain of Protein-tyrosine kinase 2-beta (Q14289 whole entry): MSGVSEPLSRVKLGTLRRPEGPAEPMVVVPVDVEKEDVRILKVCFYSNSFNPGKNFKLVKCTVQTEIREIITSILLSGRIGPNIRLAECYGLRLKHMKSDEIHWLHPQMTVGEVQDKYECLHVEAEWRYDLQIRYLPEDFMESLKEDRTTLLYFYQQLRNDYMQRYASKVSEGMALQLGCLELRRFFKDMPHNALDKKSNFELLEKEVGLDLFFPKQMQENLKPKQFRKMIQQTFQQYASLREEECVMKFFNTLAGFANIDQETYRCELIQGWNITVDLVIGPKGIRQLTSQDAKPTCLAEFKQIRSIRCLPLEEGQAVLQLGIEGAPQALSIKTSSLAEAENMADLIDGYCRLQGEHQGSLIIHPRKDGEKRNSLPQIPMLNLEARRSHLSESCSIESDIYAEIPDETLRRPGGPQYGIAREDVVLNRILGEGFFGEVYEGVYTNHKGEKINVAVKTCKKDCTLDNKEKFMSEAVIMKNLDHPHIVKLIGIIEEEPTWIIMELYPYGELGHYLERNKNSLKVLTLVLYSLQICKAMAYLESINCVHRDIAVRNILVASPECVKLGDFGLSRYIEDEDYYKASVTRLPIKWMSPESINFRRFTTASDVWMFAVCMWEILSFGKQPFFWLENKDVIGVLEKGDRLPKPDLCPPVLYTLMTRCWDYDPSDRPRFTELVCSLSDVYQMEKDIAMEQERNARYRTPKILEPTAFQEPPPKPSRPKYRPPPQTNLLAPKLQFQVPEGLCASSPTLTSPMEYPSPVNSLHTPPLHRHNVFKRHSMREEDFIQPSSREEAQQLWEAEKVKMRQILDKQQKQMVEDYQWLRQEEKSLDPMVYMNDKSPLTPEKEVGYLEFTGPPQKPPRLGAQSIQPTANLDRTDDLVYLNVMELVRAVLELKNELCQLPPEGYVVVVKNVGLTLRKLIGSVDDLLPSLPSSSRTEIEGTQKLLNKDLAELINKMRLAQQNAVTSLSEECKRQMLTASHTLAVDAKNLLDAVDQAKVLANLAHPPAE
Chain of Receptor-interacting serine/threonine-protein kinase 3 (Q9Y572 whole entry): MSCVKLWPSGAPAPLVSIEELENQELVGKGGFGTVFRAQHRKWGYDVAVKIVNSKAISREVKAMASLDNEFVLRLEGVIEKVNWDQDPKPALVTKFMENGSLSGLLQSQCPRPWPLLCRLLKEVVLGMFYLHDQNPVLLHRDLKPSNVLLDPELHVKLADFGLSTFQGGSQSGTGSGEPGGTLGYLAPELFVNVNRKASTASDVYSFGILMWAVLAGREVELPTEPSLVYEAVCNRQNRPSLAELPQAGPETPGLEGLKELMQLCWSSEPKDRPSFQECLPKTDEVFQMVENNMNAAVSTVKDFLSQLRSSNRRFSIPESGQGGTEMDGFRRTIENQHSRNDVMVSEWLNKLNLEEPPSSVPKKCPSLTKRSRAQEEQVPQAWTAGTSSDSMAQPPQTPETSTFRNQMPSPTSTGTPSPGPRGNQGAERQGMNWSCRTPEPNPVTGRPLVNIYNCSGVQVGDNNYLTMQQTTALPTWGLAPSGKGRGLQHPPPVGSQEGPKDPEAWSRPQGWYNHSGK
Chain of Cyclin-dependent kinase 1 (P06493 whole entry): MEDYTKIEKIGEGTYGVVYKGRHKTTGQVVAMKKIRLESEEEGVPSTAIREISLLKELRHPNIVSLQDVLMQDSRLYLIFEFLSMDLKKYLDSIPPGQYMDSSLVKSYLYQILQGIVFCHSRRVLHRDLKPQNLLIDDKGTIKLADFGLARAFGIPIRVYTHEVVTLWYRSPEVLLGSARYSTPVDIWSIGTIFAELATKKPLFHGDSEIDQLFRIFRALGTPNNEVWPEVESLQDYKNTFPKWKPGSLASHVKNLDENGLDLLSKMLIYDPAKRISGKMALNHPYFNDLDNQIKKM
Chain of Cyclin-dependent kinase 3 (Q00526 whole entry): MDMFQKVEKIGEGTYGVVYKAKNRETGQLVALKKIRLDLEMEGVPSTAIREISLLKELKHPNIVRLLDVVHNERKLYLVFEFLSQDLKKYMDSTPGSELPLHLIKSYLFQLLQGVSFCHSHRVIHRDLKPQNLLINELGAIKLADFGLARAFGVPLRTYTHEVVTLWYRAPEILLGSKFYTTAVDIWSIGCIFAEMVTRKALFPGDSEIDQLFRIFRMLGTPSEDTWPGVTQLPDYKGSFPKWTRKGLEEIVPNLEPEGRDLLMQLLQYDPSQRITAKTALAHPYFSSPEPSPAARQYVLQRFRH

Kd [1]	Kd [2]	Kd [3]	Kd [4]	Kd (Aurora kinase A)	Kd [5]	Kd [6]	Kd [7]	Kd [8]	Kd [9]	Kd [10]	Kd [11]	Kd (Insulin receptor)	Kd (DNA topoisomerase 2-beta)	Kd [12]	Kd [13]	SMILES
0.133 µM (active)	> 30 µM (inactive)	> 30 µM (inactive)	> 30 µM (inactive)	> 30 µM (inactive)	> 30 µM (inactive)	> 30 µM (inactive)	> 30 µM (inactive)	> 30 µM (inactive)	> 30 µM (inactive)	> 30 µM (inactive)	> 30 µM (inactive)	> 30 µM (inactive)	> 30 µM (inactive)	> 30 µM (inactive)	> 30 µM (inactive)	Cn1ncc(Cl)c1-c1cc(C(=O)N[C@H](CN)Cc2cccc(F)c2)sc1Cl [AFURESERTIB]
> 30 µM (inactive)	> 30 µM (inactive)	> 30 µM (inactive)	> 30 µM (inactive)	> 30 µM (inactive)	> 30 µM (inactive)	> 30 µM (inactive)	> 30 µM (inactive)	> 30 µM (inactive)	> 30 µM (inactive)	> 30 µM (inactive)	> 30 µM (inactive)	> 30 µM (inactive)	> 30 µM (inactive)	2.96 µM (active)	> 30 µM (inactive)	CC[C@@H]1C(=O)N(C)c2cnc(Nc3ccc(C(=O)N[C@H]4CC[C@H](N5CCN(CC6CC6)CC5)CC4)cc3OC)nc2N1C(C)C [VOLASERTIB]
> 30 µM (inactive)	> 30 µM (inactive)	> 30 µM (inactive)	> 30 µM (inactive)	> 30 µM (inactive)	> 30 µM (inactive)	> 30 µM (inactive)	> 30 µM (inactive)	> 30 µM (inactive)	> 30 µM (inactive)	> 30 µM (inactive)	> 30 µM (inactive)	> 30 µM (inactive)	> 30 µM (inactive)	> 30 µM (inactive)	> 30 µM (inactive)	C[C@@H]1CN(Cc2ccc(F)cc2)[C@@H](C)CN1C(=O)c1cc2c(C(=O)C(=O)N(C)C)cn(C)c2cc1Cl [TALMAPIMOD]
> 30 µM (inactive)	> 30 µM (inactive)	> 30 µM (inactive)	> 30 µM (inactive)	> 30 µM (inactive)	> 30 µM (inactive)	> 30 µM (inactive)	> 30 µM (inactive)	> 30 µM (inactive)	> 30 µM (inactive)	> 30 µM (inactive)	> 30 µM (inactive)	> 30 µM (inactive)	> 30 µM (inactive)	> 30 µM (inactive)	> 30 µM (inactive)	CO[C@H]1C[C@@H]2CC[C@@H](C)[C@@](O)(O2)C(=O)C(=O)N2CCCC[C@H]2C(=O)O[C@H]([C@H](C)C[C@@H]2CC[C@@H](OCCO)[C@H](OC)C2)CC(=O)[C@H](C)/C=C(\C)[C@@H](O)[C@@H](OC)C(=O)[C@H](C)C[C@H](C)/C=C/C=C/C=C/1C [EVEROLIMUS]
> 30 µM (inactive)	> 30 µM (inactive)	> 30 µM (inactive)	> 30 µM (inactive)	> 30 µM (inactive)	> 30 µM (inactive)	> 30 µM (inactive)	> 30 µM (inactive)	> 30 µM (inactive)	> 30 µM (inactive)	> 30 µM (inactive)	> 30 µM (inactive)	> 30 µM (inactive)	> 30 µM (inactive)	> 30 µM (inactive)	> 30 µM (inactive)	Cn1cc(-c2ccc(F)c(C(F)(F)F)c2)nc1C1CCN(c2ncnc3[nH]ncc23)CC1 [LY-2584702]
> 30 µM (inactive)	> 30 µM (inactive)	> 30 µM (inactive)	> 30 µM (inactive)	> 30 µM (inactive)	> 30 µM (inactive)	> 30 µM (inactive)	> 30 µM (inactive)	> 30 µM (inactive)	> 30 µM (inactive)	1.35 µM (active)	> 30 µM (inactive)	> 30 µM (inactive)	> 30 µM (inactive)	> 30 µM (inactive)	> 30 µM (inactive)	COc1cc2nccc(Oc3ccc(NC(=O)Nc4cc(C)on4)c(Cl)c3)c2cc1OC [TIVOZANIB]
> 30 µM (inactive)	> 30 µM (inactive)	> 30 µM (inactive)	> 30 µM (inactive)	> 30 µM (inactive)	> 30 µM (inactive)	> 30 µM (inactive)	> 30 µM (inactive)	> 30 µM (inactive)	> 30 µM (inactive)	> 30 µM (inactive)	> 30 µM (inactive)	> 30 µM (inactive)	> 30 µM (inactive)	> 30 µM (inactive)	> 30 µM (inactive)	CC(C)Nc1cc(-c2c[nH]c(C(=O)N[C@H](CO)c3cccc(Cl)c3)c2)c(Cl)cn1 [ULIXERTINIB]

SMILES	Kd [1]	Kd [2]	Kd [3]	Kd [4]	Kd (Aurora kinase A)	Kd [5]	Kd [6]	Kd [7]	Kd [8]	Kd [9]	Kd [10]	Kd [11]	Kd (Insulin receptor)	Kd (DNA topoisomerase 2-beta)	Kd [12]	Kd [13]
Cc1cc(-c2cc(O)ccc2Cl)cc2nnc(Nc3ccc(OCCN4CCCC4)cc3)nc12	> 30 µM (inactive)	0.003 µM (active)	> 30 µM (inactive)	> 30 µM (inactive)	> 30 µM (inactive)	> 30 µM (inactive)	> 30 µM (inactive)	> 30 µM (inactive)	> 30 µM (inactive)	> 30 µM (inactive)	0.003 µM (active)	> 30 µM (inactive)	> 30 µM (inactive)	> 30 µM (inactive)	> 30 µM (inactive)	> 30 µM (inactive)
CN1CCC(COc2cnc(-c3cccc(Cn4nc(-c5cccc(C#N)c5)ccc4=O)c3)nc2)CC1 [TEPOTINIB]	> 30 µM (inactive)	> 30 µM (inactive)	> 30 µM (inactive)	> 30 µM (inactive)	> 30 µM (inactive)	> 30 µM (inactive)	> 30 µM (inactive)	> 30 µM (inactive)	> 30 µM (inactive)	> 30 µM (inactive)	> 30 µM (inactive)	> 30 µM (inactive)	> 30 µM (inactive)	> 30 µM (inactive)	> 30 µM (inactive)	> 30 µM (inactive)
